From ChEMBL document CHEMBL1857833, “Screening and optimization of specific chemical series against human African Trypanosomiasis (HAT)”
Values after ≈ are worked out from the molar mass of the structure shown. Values joined by “and” are separate entries in the source; they are usually repeats but may differ in a detail not shown here. Identical values can stand only once.

Tests used:
[1] = DNDI: Cytotoxicity against L929 mouse fibroblasts, 72 hour.; format: toxicity, cell-based; settings: mouse, L929 mouse fibroblasts
in vitro [2] = settings: mouse, liver microsomes, t (1 / 2)
Description: (§1) DNDI: half life in mouse liver microsomes at a concentration of 1uM

[3] = mouse, microsomes, 1 µM
Description: (§2) DNDI: in vitro intrinsic clearance in mouse liver microsomes at a concentration of 1uM

[4] = DNDI: Cytotoxicity against L929 mouse fibroblasts, CYTO-SP, 24 hour; format: toxicity, cell-based; settings: mouse, L929 mouse fibroblasts
in vitro [5] = settings: mouse, liver microsomes
Description: as §2

[6] = mouse, microsomes, 1 µM; remark: listed apart in the source
Description: as §1

Trypanosoma brucei [7] = assay: DNDI: Inhibition of Human African Trypanosomiasis, SBRI 427, in vitro; format: functional, organism-based
Trypanosoma brucei [8] = assay: DNDI: Inhibition of Human African Trypanosomiasis, Cross 22, in vitro; format: functional, organism-based
[9] = DNDI: Lipophilicity measured in Chromatographic hydrophobicity index (CHI) assay, pH 7.4; format: physicochemical; settings: buffer
[10] = DNDI: Solubility in phosphate buffered saline at pH7.4 measured by nephelometry at room temperature (NEPH-RT); format: physicochemical; settings: pH 7.4
Trypanosoma brucei [11] = assay: DNDI: Mean survival time in days (MSD) of mice after intraperitoneal injection of Human African Trypanosomiasis (HAT), EATRO 110, in vivo at 20 mg/kg/day for 4 days.; format: functional, Mus musculus
in vitro [12] = settings: human, liver microsomes, t (1 / 2)
Description: DNDI: half life in human liver microsomes at a concentration of 1uM

in vitro [13] = settings: human, liver microsomes, CLint in vitro
Description: DNDI: in vitro intrinsic clearance in human liver microsomes at a concentration of 1uM

MDR1 (ABCB1) [14] = target: T1, MDR1 (ABCB1) (Homo sapiens, UniProt P08183); assay: DNDI: % of compound recovered from apical to basolateral permeability assay in MDCK cells transfected with human MDR1 after 60 mins at a concentration of 3uM; format: ADME, cell-based, Canis lupus familiaris; settings: dog
T1 sequence (P08183 whole entry): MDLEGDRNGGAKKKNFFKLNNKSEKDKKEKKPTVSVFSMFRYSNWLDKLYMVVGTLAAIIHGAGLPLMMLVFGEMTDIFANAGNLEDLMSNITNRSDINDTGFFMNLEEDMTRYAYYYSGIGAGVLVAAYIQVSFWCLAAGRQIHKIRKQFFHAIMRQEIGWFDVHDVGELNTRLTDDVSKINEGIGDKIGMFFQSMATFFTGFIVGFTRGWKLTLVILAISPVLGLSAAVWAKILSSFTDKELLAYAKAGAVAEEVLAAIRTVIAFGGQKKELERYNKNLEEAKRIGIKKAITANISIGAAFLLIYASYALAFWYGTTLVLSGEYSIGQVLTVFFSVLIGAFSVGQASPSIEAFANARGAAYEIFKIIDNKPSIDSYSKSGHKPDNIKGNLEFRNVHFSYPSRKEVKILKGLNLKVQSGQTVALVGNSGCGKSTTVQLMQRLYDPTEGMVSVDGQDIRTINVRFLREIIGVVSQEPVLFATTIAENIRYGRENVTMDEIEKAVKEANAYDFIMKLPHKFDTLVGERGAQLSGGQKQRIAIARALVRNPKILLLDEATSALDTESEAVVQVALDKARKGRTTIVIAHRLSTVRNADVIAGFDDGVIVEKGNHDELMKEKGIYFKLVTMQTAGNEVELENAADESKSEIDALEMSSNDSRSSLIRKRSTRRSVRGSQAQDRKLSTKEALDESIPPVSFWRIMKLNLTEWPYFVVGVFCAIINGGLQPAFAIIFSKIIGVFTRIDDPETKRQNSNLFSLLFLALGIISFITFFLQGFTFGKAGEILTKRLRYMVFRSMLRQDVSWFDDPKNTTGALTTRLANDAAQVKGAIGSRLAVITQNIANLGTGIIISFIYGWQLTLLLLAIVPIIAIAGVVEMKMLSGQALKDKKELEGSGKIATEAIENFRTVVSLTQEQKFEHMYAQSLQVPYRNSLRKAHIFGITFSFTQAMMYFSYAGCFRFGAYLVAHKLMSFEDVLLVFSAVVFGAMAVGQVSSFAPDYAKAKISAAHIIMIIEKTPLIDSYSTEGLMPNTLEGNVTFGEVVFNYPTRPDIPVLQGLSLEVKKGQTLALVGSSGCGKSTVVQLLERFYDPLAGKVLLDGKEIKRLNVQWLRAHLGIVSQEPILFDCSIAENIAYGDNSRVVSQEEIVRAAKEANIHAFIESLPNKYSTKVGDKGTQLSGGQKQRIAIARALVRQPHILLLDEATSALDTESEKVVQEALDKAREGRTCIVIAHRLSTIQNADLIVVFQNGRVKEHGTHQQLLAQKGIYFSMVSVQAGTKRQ

MDR1 (ABCB1) [15] = target: T1, MDR1 (ABCB1); assay: DNDI: Efflux ratio for permeability from basolateral to apical side to apical to basolateral side of MDCK cells transfected with human MDR1; format: ADME, cell-based, Canis lupus familiaris; settings: dog, MDCK-MDR1; read-out: Calculated Ratio
MDR1 (ABCB1) [16] = target: T1, MDR1 (ABCB1); assay: DNDI: % of compound recovered from apical to basolateral permeability assay in MDCK cells transfected with human MDR1 after 60 mins at a concentration of 3uM in the presence of GF120918; format: ADME, cell-based, Canis lupus familiaris; settings: dog, MDCK-MDR1, with GF120918 (concentration not stated)
MDR1 (ABCB1) [17] = target: T1, MDR1 (ABCB1); assay: DNDI: Apparent permeability from apical to basolateral side of the MDCK cell transfected with human MDR1after 60 mins at a concentration of 3uM; format: ADME, cell-based, Canis lupus familiaris; settings: dog, MDCK-MDR1
[18] = DNDI: half-life in mouse S9 microsomes at a concentration of 1uM; format: ADME, subcellular, Liver, S9 fraction
[19] = DNDI: in vitro intrinsic clearance in human liver microsomes at a concentration of 10uM; format: ADME, Microsome
Leishmania donovani = assay: DNDI: Inhibition of formation of Leishmania donovani (strain MHOM/ET/67/L82) axenic amastigotes, in vitro.; format: functional, organism-based
Plasmodium falciparum = assay: DNDI: Inhibition of the malaria parasite Plasmodium falciparum, in vitro; format: functional, organism-based; settings: K1
[20] = test system: Trypanosoma brucei rhodesiense; assay: DNDI: Inhibition of Human African Trypanosomiasis (HAT), STIB 900, in vitro; format: functional, organism-based
[21] = DNDI: % of compound remaining in mouse S9 microsomes at a concentration of 1uM after 60 mins; format: ADME, subcellular, Liver, S9 fraction
[22] = DNDI: in vitro intrinsic clearance in mouse liver microsomes at a concentration of 10uM; format: ADME, Microsome; settings: read-out: CLint in vitro
[23] = DNDI: Solubility in phosphate buffered saline at pH7.4 measured by optical density (turbidimetry) at room temperature (OD-RT); format: physicochemical; settings: pH 7.4
[24] = DNDI: half life in human liver microsomes at a concentration of 10uM; format: ADME, Microsome
[25] = DNDI: Cytotoxicity against L-6 rat myoblasts from skeletal muscle cells; format: toxicity, cell-based, L6; settings: L-6 rat skeletal muscle myoblasts
Trypanosoma cruzi = assay: DNDI: Inhibition of Chagas Disease parasite Trypanosoma cruzi (Tulahuen LacZ, Clone C4), in vitro.; format: functional, organism-based
[26] = DNDI: half life in mouse liver microsomes at a concentration of 10uM; format: ADME, Microsome
[27] = DNDI: % of compound remaining in rat S9 microsomes at a concentration of 1uM; format: ADME, subcellular, Liver, S9 fraction
[28] = Trypanosoma brucei, SBRI 427, read-out: IC50

| SMILES | half-life at 1 µM (in vitro [2]) | CLint in vitro [3] | t (1 / 2) [6] | IC50 (Trypanosoma brucei [7]) | IC50 (Trypanosoma brucei [8]) | chromatographic logD [9] | solubility kinetic [10] | IC50 (Trypanosoma brucei [7]; [28]) | recovery at 1 h, 3 µM (MDR1 (ABCB1) [14]) | efflux ratio (MDR1 (ABCB1) [15]) | recovery at 1 h, 3 µM (MDR1 (ABCB1) [16]) | Papp A→B at 1 h, 3 µM (MDR1 (ABCB1) [17]) | IC50 at 72 h [1] | IC50 at 24 h [4] | further results |
| --- | --- | --- | --- | --- | --- | --- | --- | --- | --- | --- | --- | --- | --- | --- | --- |
| CCCCOc1ccc(-c2nc(CNC3CC(C)CC(C)(C)C3)co2)cc1 (stereo not drawn) | 140 min | 8 µL/min/mg | 113 min | 0.39 µg/mL and 0.47 µg/mL and 1.12 µg/mL | 0.61 µg/mL (≈ 1.65 µM) |  |  |  |  |  |  |  | < 3.13 µg/mL | 20.9 µg/mL (≈ 56.4 µM) | microsomal CLint at 1 µM (in vitro [5]): 6 µL/min/mg |
| O/N=C(\Nc1ccccc1)c1ccccc1-c1ccccc1 | 3 min | 352 µL/min/mg | 2 min |  |  | 4.32 | 25 µM (≈ 7.21 µg/mL) | 4.39 µg/mL (≈ 15.2 µM) |  |  |  |  |  | 36.9 µg/mL (≈ 128 µM) | MSD (Trypanosoma brucei [11]): 4 days; half-life at 1 µM (in vitro [12]): 112 min; microsomal CLint at 1 µM (in vitro [5]): 338 µL/min/mg; microsomal CLint at 1 µM (in vitro [13]): 8 µL/min/mg |
| Fc1cccc(-c2cc3nc(-c4ccccc4)cc(NCCCN4CCOCC4)n3n2)c1 |  |  |  |  |  | > 5.2 | 3 µM (≈ 1.29 µg/mL) | 5 µg/mL (≈ 11.6 µM) | 59% | 0.05 | 51% | 3.26 ×10⁻⁶ cm/s | > 10 µg/mL |  | half-life at 1 µM [18]: 256 min |
| Cc1cc(NCCCN2CCOCC2)n2nc(-c3cccc(F)c3)cc2n1 |  |  |  |  |  | 4.44 | 25 µM (≈ 9.24 µg/mL) | > 5 µg/mL | 91% | 0.12 | 85% | 36.1 ×10⁻⁶ cm/s | > 10 µg/mL |  | half-life at 1 µM [18]: 35 min |
| COc1ccccc1/C(=N/O)NC1CCCCC1 | 21 min | 40 µL/min/mg |  |  |  | 3.6 |  | 0.52 µg/mL (≈ 2.09 µM) |  |  |  |  | > 10 µg/mL | > 50 µg/mL | CLint in vitro [19]: 23 µL/min/mg; IC50 (Leishmania donovani): 17 µg/mL (≈ 68.5 µM); IC50 (Plasmodium falciparum): 3.7 µg/mL (≈ 14.9 µM); IC50 [20]: 7.46 µg/mL (≈ 30 µM); remaining at 1 h, 1 µM [21]: 1.05%; microsomal CLint at 10 µM [22]: 91 µL/min/mg; solubility kinetic [23]: > 200 µM; half-life at 10 µM [24]: 128 min; IC50 [25]: 62.3 µg/mL (≈ 251 µM); IC50 (Trypanosoma cruzi): > 30 µg/mL; half-life at 10 µM [26]: 32 min; remaining at 1 µM [27]: 0% |

The next lines start with results.

| half-life at 1 µM (in vitro [2]) | CLint in vitro [3] | t (1 / 2) [6] | IC50 (Trypanosoma brucei [7]) | IC50 (Trypanosoma brucei [8]) | chromatographic logD [9] | solubility kinetic [10] | IC50 (Trypanosoma brucei [7]; [28]) | recovery at 1 h, 3 µM (MDR1 (ABCB1) [14]) | efflux ratio (MDR1 (ABCB1) [15]) | recovery at 1 h, 3 µM (MDR1 (ABCB1) [16]) | Papp A→B at 1 h, 3 µM (MDR1 (ABCB1) [17]) | SMILES | IC50 at 72 h [1] | IC50 at 24 h [4] | further results |
| --- | --- | --- | --- | --- | --- | --- | --- | --- | --- | --- | --- | --- | --- | --- | --- |
|  | 25 µL/min/mg and 11 µL/min/mg | 80 min and 34 min | 0.28 µg/mL and 0.72 µg/mL and 0.58 µg/mL | 0.64 µg/mL (≈ 1.66 µM) |  |  |  |  |  |  |  | CC1(C)[C@H]2CC[C@@H](CNCc3coc(-c4ccc(-c5ccccc5)cc4)n3)[C@@H]1C2 | < 3.13 µg/mL | 17.6 µg/mL (≈ 45.6 µM) |  |
|  |  |  |  |  | 3.67 | 25 µM (≈ 8.76 µg/mL) | > 5 µg/mL | 100% | 0.43 | 109% | 30.4 ×10⁻⁶ cm/s | Cc1cc(NCCCn2ccnc2)n2nc(-c3cccc(F)c3)cc2n1 | > 10 µg/mL |  |  |
|  | 4 µL/min/mg and 10 µL/min/mg | 88 min and 237 min | 0.27 µg/mL and 0.56 µg/mL and 0.41 µg/mL | 0.54 µg/mL (≈ 1.56 µM) |  |  |  |  |  |  |  | c1ccc(-c2ccc(-c3nc(CNC4CCCCCC4)co3)cc2)cc1 | < 3.13 µg/mL | 25.3 µg/mL (≈ 73.1 µM) |  |
| 7 min | 119 µL/min/mg |  |  |  | 4.53 |  | 0.62 µg/mL (≈ 2.11 µM) |  |  |  |  | O/N=C(\NC1CCCCC1)c1ccccc1-c1ccccc1 | > 10 µg/mL | 50 µg/mL (≈ 170 µM) | CLint in vitro [19]: 5 µL/min/mg; IC50 (Leishmania donovani): 27.6 µg/mL (≈ 93.7 µM); IC50 (Plasmodium falciparum): 2.78 µg/mL (≈ 9.44 µM); IC50 [20]: 50.4 µg/mL (≈ 171 µM); remaining at 1 h, 1 µM [21]: 6.85%; microsomal CLint at 10 µM [22]: 51 µL/min/mg; solubility kinetic [23]: 6.3 µM (≈ 1.85 µg/mL); half-life at 10 µM [24]: 557 min; IC50 [25]: 41.7 µg/mL (≈ 142 µM); IC50 (Trypanosoma cruzi): 7.25 µg/mL (≈ 24.6 µM); half-life at 10 µM [26]: 57 min; remaining at 1 µM [27]: 0% |
